The text below walks through data of US5236901A, “Treatment for irritable bowel syndrome” (Research Corporation Technologies, Inc., priority 1991, dated 1993).

The test system of test [1] is Sprague-Dawley rats. Put plainly: Gastric emptying of 51Cr after exogenous CRF. The following applies: CRF 1.0 to 10.0 ug i.v. or i.c.v.; FIG. 1A. In kind it is in vivo, rat. The protocol:
(§1) Female Sprague-Dawley rats (150-200 g) are used in all tests described herein. The animals are housed in groups of five in a temperature-controlled room on a 12 hour light-dark cycle (7:00 AM to 7:00 PM) and are allowed water and rat chow ad libitum. Animals are allowed at least one week to recover from shipping before experiments are performed. Gastrointestinal transit, a measure of the propulsive motor activity of the intestine, is evaluated by the geometric center method (Miller et al., 1981, J. Pharmacol. Methods 6:211-217), in which a nonabsorable radioactive marker, ^51 Cr (0.2 ml) as sodium chromate in distilled water, is instilled directly into the proximal duodenum and proximal colon via Silastic cannulas surgically implanted under Equithesin anesthesia 3-5 days earlier. Thirty-five minutes after administration of the chromium, the animals are killed, and the stomach and intestine are removed and counted for gamma radiation. Gastric emptying is evaluated by quantitating the percent radioactivity emptied from the stomach in a 15 minute period. Radiochromium in distilled water (0.2 ml) is administered by oral gavage, and the animals are killed and emptying assessed 15 minutes later. CRF or vehicle is administered intravenously or intracerebroventricularly immediately before ^51 Cr.

Test [2] relates to Sprague-Dawley rats. Put plainly: Small and large intestinal transit (geometric center method) and fecal output after exogenous CRF. Type of test: in vivo, rat. Here is the method:
as §1

In test [3] the test system is plasma ACTH. In words: Plasma ACTH concentrations by radioimmunoassay after CRF. The following applies: CRF 0.3 ug i.v.; for Plasma ACTH Concentration: mean ± SE. Type of test: in vivo, rat. The protocol:
CRF and alpha-helical CRF-(9-41) are purchased from Bachem. Drugs are diluted in distilled water, and NaOH (0.1 N) added to the solution, 1 ul at a time, until the compounds [CRF and alpha-helical CRF-(9-41)]go into solution, at a pH of ~6.8. The solutions are aliquotted into 25- and 50-ug supplies, lyophilized, and stored in a desiccator at 4°-8° C. until needed. Radioimmunoassay kits for determination of plasma levels of ACTH are purchased from ImmunoNuclear.
The following example compares the endocrine response to a low dose of exogenous CRF (0.3 ug i.v.) and to stress-induced release of endogenous CRF by measuring plasma ACTH concentrations by radioimmunoassay in animals that are wrap restrained or treated with CRF.
Blood is drawn from an indwelling jugular cannula, surgically placed under Equithesin anesthesia 3 days earlier. Blood (0.2 ml) is drawn 10 minutes before treatment, as well as 5, 10, 20, 30, 45, and 60 minutes after CRF administration or wrap-restraint stress. Blood is also drawn at the same time points from control animals are briefly ether anesthetized but which are not stressed or drug treated.

Test [4] has as its system Sprague-Dawley rats. In words: Intestinal transit after alpha-helical CRF-(9-41) alone or against exogenous CRF. Type of test: in vivo, rat. Here is the method:
as §1, with “Gastrointestinal” for “Female Sprague-Dawley rats (150-200 g) are used in all tests described herein. The animals are housed in groups of five in a temperature-controlled room on a 12 hour light-dark cycle (7:00 AM to 7:00 PM) and are allowed water and rat chow ad libitum. Animals are allowed at least one week to recover from shipping before experiments are performed. Gastrointestinal”
Since CRF is likely to play an essential role in initiating both endocrine and autonomic responses to stress, it is probable that CRF mediates the effects of stress on the gut and that blockade of CRF receptors would lessen stress-induced disordered transit. […] The antagonist, alpha-helical CRF-[…] (50 ug, i.v. or i.c.v.), has no effect on small or larger intestinal transit itself when administered into the brain or the bloodstream.

Test [5] has as its system Sprague-Dawley rats. In words: Wrap-restraint stress-induced intestinal dysfunction, antagonist pretreatment. Type of test: in vivo, rat. The protocol:
as §1, with “Gastrointestinal” for “Female Sprague-Dawley rats (150-200 g) are used in all tests described herein. The animals are housed in groups of five in a temperature-controlled room on a 12 hour light-dark cycle (7:00 AM to 7:00 PM) and are allowed water and rat chow ad libitum. Animals are allowed at least one week to recover from shipping before experiments are performed. Gastrointestinal”
Wrapping-restraint stress, a relatively mild, nonulcerogenic model of restraint is used in all stress studies. Stressed animals are lightly anesthetized with ether, and their trunk, shoulders, and upper forelimbs are wrapped in a confining harness of masking tape. Control animals are lightly ether anesthetized but are not wrapped. Radiochromium is then administered, and the animals are killed 35 minutes later to assess intestinal transit. All stress experiments are performed in the late afternoon (4:00 to 7:00 PM) due to a strong circadian influence on the degree of intestinal dysfunction associated with stress at different times of the day. […]

Test [6] relates to pituitary ACTH release. As to conditions: Rivier et al., 1984, cited from earlier work.
[7] abbreviates: antagonist 50 ug i.v. or i.c.v., CRF 3 and 10 ug i.v. or i.c.v., same route.

No end group written: not given here.

With “Corticotropin-releasing factor (SQEPPISLDLTFHLLREVLEMTKADQLAQQAHSNRKLLDIA; ends and bridges not checked; UniProt P01142 148-188, looked up) [CRF, peptide comprising 41 amino acid residues, first characterized from ovine hypothalamic extracts; purchased from Bachem]”, the Gastric emptying entry in test [1] was “inhibited in a dose-dependent manner”. The “Response of the gut to CRF compared with restraint stress” value in test [2] (CRF 0.3 ug i.c.v., gastric emptying, small and large intestinal transit, fecal pellet output, FIG. 2) was “identical both in direction and degree”. Moreover, the Fecal pellet output result in test [2] (CRF 0.3 to 10.0 ug) was “increased”. In test [2] (CRF 0.3 to 10.0 ug i.v. or i.c.v., FIG. 1B), the Small intestinal transit result is given as “inhibits”. Further, the Colonic transit result in test [2] (CRF 0.3 to 10.0 ug i.v. or i.c.v., FIG. 1C) is “increases”. Besides, the Diarrhea result in test [2] (CRF at higher doses) was “diarrhea”. The Lowest effective dose in test [2] (i.c.v., gastric and intestinal effects) came out at 0.3 µg. Besides, in test [2] (intravenously versus intracerebroventricularly administered CRF), the “Effectiveness of i.v. versus i.c.v. administration” value is listed as “equally effective”. The “Peak levels of ACTH compared with wrap-restraint stress” value in test [3] is listed as “very similar”. In test [3], the “Time course of ACTH release compared with stress-induced ACTH release” value was “more rapid time course”. Further, the “Plasma ACTH Concentration” value is 619 ± 70 pg/mL in test [3] (5 minutes after administration); 494 ± 108 pg/mL in test [3] (10 minutes after administration); 265 ± 93 pg/mL in test [3] (20 minutes after administration); 174 ± 24 pg/mL in test [3] (30 minutes after administration); 146 ± 33 pg/mL in test [3] (45 minutes after administration); 141 ± 49 pg/mL in test [3] (60 minutes after administration). Besides, in test [3] (time head +10 (10 minutes before treatment)), the “Plasma ACTH Concentration” value was determined as 64 ± 4 pg/mL.
alpha-helical CRF-(9-41): in test [4] (50 ug, i.v. or i.c.v.), the “Large intestinal transit, antagonist alone” value is reported as “has no effect” and the “Small intestinal transit, antagonist alone” value was “has no effect”. Moreover, in test [4] (setting [7]), the “Effects of exogenous CRF on large intestinal transit” value is recorded as “effectively antagonizes” and the “Effects of exogenous CRF on small intestinal transit” value is on record as “effectively antagonizes”. Also, the “Stress-induced inhibition of small intestinal transit” value in test [5] (50 ug i.c.v. or i.v. immediately before stress, FIG. 3A) was “did not affect”. Besides, in test [5] (50 ug i.c.v. or i.v. immediately before stress, FIG. 3B), the “Stress-induced increase in large intestinal transit” value is on record as “completely blocked”. Moreover, the “Stress-induced increase in fecal pellet output” value in test [5] (50 ug i.c.v. or i.v. immediately before stress, FIG. 3C) is listed as “significantly diminished”. Moreover, in test [5] (100 μg i.c.v.), the “Stress-induced increase in colonic transit, higher dose versus 50 ug” value is listed as “did not result in a further decrease”; the “Stress-induced increase in fecal excretion, higher dose versus 50 ug” value is recorded as “did not result in a further decrease”; the “Stress-induced inhibition of small intestinal transit” value is reported as “did not affect”. Also, the Agonist activity result in test [6] is on record as “little agonist activity”. Besides, the “Effects of CRF and stress on pituitary ACTH release” value in test [6] (both in vivo and in vitro) is on record as “effectively antagonizes”.
